Data taken from patent US20130165419A1, “COMBINATION ANTI-INFLAMMATORY OPHTHALMIC COMPOSITIONS” (INSITE VISION INCORPORATED, priority 2011, published 2013).

Experiment: Release in the rabbit eye, measured by drug contained in the aqueous humor
Format: in vivo
Conditions: released from the gel of the ophthalmically acceptable vehicle
Procedure: The viscous gels that result upon administration of the aqueous suspensions of this invention to the eye have residence times in the eye ranging from about 2 to about 12 hours, e.g., from about 3 to about 6 hours. The active ingredients contained in these ophthalmically acceptable vehicles are released from the gels at rates that depend on such factors as the active ingredient itself and its physical form, the extent of drug loading and the pH of the system, as well as on any drug delivery adjuvants, such as ion exchange resins compatible with the ocular surface, which can also be present.

CC(=O)[C@@]1(O)CC[C@H]2[C@@H]3C[C@H](C)C4=CC(=O)C=C[C@]4(C)[C@@]3(F)[C@@H](O)C[C@@]21C [fluorometholone]
release rates in the rabbit eye, as measured by fluorometholone contained in the aqueous humor: in excess of four hours
